“Also recorded” adds a separate entry of the source.
Experiments:
HIV-1 integrase [1] = molecular target: T1, HIV-1 integrase (Human immunodeficiency virus type 1 group M subtype B, UniProt P04585); assay: endonucleolytic cleavage test of HIV-1 integrase (21 bp oligonucleotide); format: biochemical; settings: read-out: endonucleolytic cleavage, concentration necessary to block 50% of the activity of HIV-1 integrase
HIV-1 integrase [2] = molecular target: T1, HIV-1 integrase; settings: three tests: endonucleolytic cleavage, strand transfer, disintegration
Procedure: 1—The endonucleolytic activity of the protein is tested on a double-strand oligonucleotide of 21 base pairs, radiolabelled at the 5′ end. The activity of the integrase is expressed by elimination of the dinucleotide at the 3′ end.
2—The strand transfer test is carried out with a double-strand oligonucleotide of 21 base pairs mimicking the end of the viral DNA, the 3′ terminal dinucleotide of which has been supressed. The activity of the protein is expressed by the covalent insertion of this oligonucleotide in a homologous oligonucleotide.
3—The disintegration test is carried out with a substrate mimicking the structure of the integrated viral DNA. The quantity of DNA excised by the integrase is measured. This last test only quantifies the catalytic activity of the protein excluding its fixation activity on the DNA.

HIV-1 integrase [3] = molecular target: T1, HIV-1 integrase; assay: strand transfer test of HIV-1 integrase; format: biochemical; settings: read-out: strand transfer, concentration necessary to block 50% of the activity of HIV-1 integrase
HIV-1 integrase [4] = molecular target: T1, HIV-1 integrase; assay: disintegration test of HIV-1 integrase; format: biochemical; settings: read-out: disintegration, concentration necessary to block 50% of the activity of HIV-1 integrase
HIV-1 [5] = settings: 72 hours, ELISA p24
Procedure: The activity test consists of putting the cells of an established lymphocyte line, CEM cells, in contact with a supernatant of infected cells containing the infectious virions. The test is carried out in the following manner: The CEM cells, cultured in suspension in RPMI medium supplemented with 10% of foetal calf serum, are infected with a viral supernatant with a multiplicity of infection of 0.5. After 2 hours of infection, the cells are washed twice with RPMI medium in a manner so as to eliminate the residual viral particles. Finally, the cells are replaced in RPMI medium containing the compound according to the invention. The viral load is evaluated after 72 hours of culture. This is quantified in two of the following ways:
1) The quantity of viral protein p24 is determined by an ELISA test.

CEM cells = assay: toxicity on CEM cells, MTT biotransformation test; format: cell-based
Procedure: (§1) The toxicity of the compounds is tested by a biotransformation test of MTT to formazan by cellular mitochondrial dehydrogenases.

HIV-1 [6] = assay: late stages of HIV-1 replication in TNF-activated ACH2 cells, p24 ELISA; format: cell-based; settings: 24 hours; for effect on the production of viral particles (in words): ACH2 cells
Procedure: (§2) The compounds according to the present invention were tested on the late stages of the replication of HIV-1. The test is as follows: The ACH2 cells which integrated HIV-1 viral DNA were used. […] When the cells are used in the presence of TNF, they express the HIV virus from the integrated provirus. The production of viral particles is detected 24 hours after activation. The viral load in the supernatant is quantified by the ELISA p24 test.

HIV-1 [7] = assay: HIV-1 replication in CEM cells, infectious virus load on Hela β-gal CD4+ cells; format: cell-based; settings: read-out: β-gal activity, 50% effectiveness on production of viral particles, 72 hours, HeLa β-gal colorimetric test, global antiviral effect
Excerpt: This is quantified in two of the following ways:

ACH2 cells = assay: toxicity on ACH2 cells, MTT biotransformation test; format: cell-based
Procedure: as §1, §2

EcoRI restriction enzyme = EcoRI restriction enzyme (Escherichia coli, UniProt P00642); assay: inhibition of cleavage of linearized pSP65 plasmid by EcoRI; format: biochemical; settings: 4 hours, 0.1 units EcoRI
Procedure: The catalytic site of HIV-1 integrase is very close to that of the EcoRI restriction enzyme. The compounds which block both proteins are therefore catalytic inhibitors of integrase.
The linearized plasmid is incubated for 4 hours in the presence of 0.1 units of the EcoRI enzyme. The enzyme activity is monitored by the appearance of the cleavage products on 1.2% agarose gel.

[8] = molecular target: T2, reverse transcriptase enzyme of the HIV-1 virus (Human immunodeficiency virus type 1 group M subtype B, UniProt P04585); assay: reverse transcriptase activity of lysed viral particles on polyrC/oligo(dG); format: biochemical; settings: polyrC matrix, oligo (dG) primer
T2 construct: endogenous in cells; host or cells: viral particles concentrated from the supernatant of a CEM cell culture, lysed in non-ionic detergent
Procedure: The specificity of the compounds according to the invention for integrase is estimated by an activity test on the reverse transcriptase enzyme of the HIV-1 virus. This test is carried out in the following manner: The viral particles of a supernatant of a CEM cell culture (established lymphocyte line) are concentrated by centrifugation at 30,000 RPM. These viral particles are lysed in a non-ionic detergent and their reverse transcriptase activity is tested on a substrate formed from a hybridized oligo (dG) primer on a polyrC matrix. In the presence of radiolabelled nucleotide dG, the transcriptase activity is expressed by the formation of labelled polynucleotide which can be precipitated in trichloroacetic acid. This confirms that a dideoxynucleotide ddG inhibits the formation of acid precipitatable.

Chain of EcoRI restriction enzyme (P00642 whole entry): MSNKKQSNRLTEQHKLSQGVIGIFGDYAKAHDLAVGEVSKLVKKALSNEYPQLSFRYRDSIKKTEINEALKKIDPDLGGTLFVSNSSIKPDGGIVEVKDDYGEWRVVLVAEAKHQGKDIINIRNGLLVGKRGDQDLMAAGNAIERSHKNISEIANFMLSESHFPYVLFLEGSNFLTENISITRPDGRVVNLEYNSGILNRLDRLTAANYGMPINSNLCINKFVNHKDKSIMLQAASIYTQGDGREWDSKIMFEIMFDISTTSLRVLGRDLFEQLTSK

| Compound | IC50 (HIV-1 integrase [1]) | anti-integrase activity in the tests for in vitro activity (in words) (HIV-1 integrase [2]) | IC50 (HIV-1 integrase [3]) | IC50 (HIV-1 integrase [4]) | anti-viral effect, production of viral particles / replication in CEM cells (in words) (HIV-1 [5]) | MTT, toxicity by biotransformation (CEM cells) | toxicity according to the MTT test (in words) (CEM cells; up to 100 μM, maximum concentration tested) | effect on the production of viral particles (in words) (HIV-1 [6]; above 50 μM) | effect on the production of viral particles (in words) (HIV-1 [6]; concentrations up to 100 μM) | IC50 (HIV-1 [6]; Human immunodeficiency virus 1, ACH-2, ACH2 cells activated by TNF, effect on the late stages, read-out: p24 test, inhibitory 50% concentration) | EC50 (HIV-1 [7]) | MTT, toxicity by biotransformation (ACH2 cells) | cleavage by EcoRI (in words) (EcoRI restriction enzyme) | reverse transcription inhibition (in words) [8] |
| --- | --- | --- | --- | --- | --- | --- | --- | --- | --- | --- | --- | --- | --- | --- |
| O=C(O)c1ccc2ccc(/C=C/c3cc(O)c(O)c(O)c3)nc2c1O [Compound 3, 8-hydroxy-2-[2-[(3.4,5-trihydroxyphenyl)ethenyl]]7-quinoline carboxylic acid] | 320 nM | inhibit the three activites | 310 nM | 56 nM | – | – | – | – | – | – | – | – | – | – |
| O=C([O-])c1ccc2ccc(C=Cc3ccc(O)c(O)c3)nc2c1O.[Na+] [Compound 2, sodium salt of 8-hydroxy-2-[2-[(3,4-dihydroxyphenyl)ethenyl]]7-quinoline-carboxylic acid] | – | – | – | – | blocks the production of viral particules; also recorded: same anti-viral effect | – | – | – | – | – | – | – | – | – |
| O=C(O)c1ccc2ccc(/C=C/c3ccc(O)c(O)c3)nc2c1O [Compound 1, 8-hydroxy-2-[2-[(3,4-dihydroxyphenyl)ethenyl]]7-quinoline carboxylic acid] | – | inhibit the three activites | – | – | – | >100 µM | devoid of toxicity | slight inhibition | No other significant effect | > 100000 nM | 4000 nM | >100 µM | strongly inhibited | no reverse transcription inhibition |

Source: patent US6670377B1, “Quinoline derivatives, having in particular antiviral properties, preparation and biological applications thereof” (Centre National de la Recherche, priority 1997, dated 2003)
